Assay results as given in publication PMC9516332 (Frontiers in Oncology, 2022).
Read-outs that look alike come from different tables or passages of the source.

System: 134 cancer cell lines
Assay: Cell viability assay (ATPlite, 72 hours), IC50 on cancer cell line panel

## O=C(c1ccc(F)c(F)c1Nc1ccc(I)cc1F)N1CC(O)([C@@H]2CCCCN2)C1 [cobimetinib]
Homo sapiens, MOLT-4, read-out: IC50 in cell proliferation assay, MOLT-4 cell line
  IC50: > 10000 nM
Homo sapiens, MV4-11, read-out: IC50 in cell proliferation assay, MV4-11 cell line (FLT3 ITD)
  IC50: 111 nM
Homo sapiens, MeWo, read-out: IC50 in cell proliferation assay, MeWo cell line
  IC50: 330 nM
Homo sapiens, NCCIT, read-out: IC50 in cell proliferation assay, NCC-IT cell line
  IC50: 1290 nM
Homo sapiens, NCI-H82, read-out: IC50 in cell proliferation assay, cell line NCI-H82
  IC50: 8220 nM
Homo sapiens, NCI-H460, read-out: IC50 in cell proliferation assay, NCI-H460 cell line
  IC50: 77 nM
Homo sapiens, NCI-H661, read-out: IC50 in cell proliferation assay, NCI-H661 cell line
  IC50: > 10000 nM
Homo sapiens, NCI-H716, read-out: IC50 in cell proliferation assay, cell line NCI-H716 (FGFR2-COL14A1)
  IC50: 921 nM
Homo sapiens, NCI-H1650, read-out: IC50 in cell proliferation assay, NCI-H1650 cell line (EGFR exon19del)
  IC50: 527 nM
Homo sapiens, NCI-H1975, read-out: IC50 in cell proliferation assay, NCI-H1975 cell line (EGFR p.L858R + p.T790M)
  IC50: 98 nM
Homo sapiens, NCI-H2228, read-out: IC50 in cell proliferation assay, NCI-H2228 cell line (EML4-ALK)
  IC50: 721 nM
Homo sapiens, OVCAR-3, read-out: IC50 in cell proliferation assay, cell line OVCAR-3
  IC50: > 10000 nM
Homo sapiens, PFSK-1, read-out: IC50 in cell proliferation assay, cell line PFSK-1
  IC50: > 10000 nM
Homo sapiens, RL95-2, read-out: IC50 in cell proliferation assay, cell line RL95-2 (EGFR p.A289V)
  IC50: 34 nM
Homo sapiens, RPMI-7951, read-out: IC50 in cell proliferation assay, cell line RPMI-7951 (BRAF p.V600E)
  IC50: 20 nM
Homo sapiens, RS4-11, read-out: IC50 in cell proliferation assay, cell line RS4;11
  IC50: > 10000 nM
Homo sapiens, Rec1, read-out: IC50 in cell proliferation assay, cell line REC-1
  IC50: 6390 nM
Homo sapiens, SHP77, read-out: IC50 in cell proliferation assay, cell line SHP-77
  IC50: > 10000 nM
Homo sapiens, SK-BR-3, read-out: IC50 in cell proliferation assay, cell line SK-BR-3 (ERBB2 amplification)
  IC50: > 10000 nM
Homo sapiens, SK-N-AS, read-out: IC50 in cell proliferation assay, cell line SK-N-AS
  IC50: 12 nM
Homo sapiens, SK-N-FI, read-out: IC50 in cell proliferation assay, cell line SK-N-FI
  IC50: 82 nM
Homo sapiens, SK-N-MC, read-out: IC50 in cell proliferation assay, cell line SK-N-MC
  IC50: 7630 nM
Homo sapiens, SK-N-SH, read-out: IC50 in cell proliferation assay, cell line SK-N-SH (ALK p.F1174L)
  IC50: 37 nM
Homo sapiens, SNU-5, read-out: IC50 in cell proliferation assay, cell line SNU-5 (MET amplification)
  IC50: 47 nM
Homo sapiens, SNU-16, read-out: IC50 in cell proliferation assay, cell line SNU-16 (FGFR2 amplification)
  IC50: 2490 nM
Homo sapiens, SNU-C2B, read-out: IC50 in cell proliferation assay, cell line SNU-C2B (EGFR p.R165Q)
  IC50: 324 nM
Homo sapiens, SU-DHL-1, read-out: IC50 in cell proliferation assay, cell line SU-DHL-1 (NPM1-ALK)
  IC50: 478 nM
Homo sapiens, SU-DHL-6, read-out: IC50 in cell proliferation assay, cell line SU-DHL-6
  IC50: 2020 nM
Homo sapiens, SUP-T1, read-out: IC50 in cell proliferation assay, cell line SUP-T1
  IC50: > 10000 nM
Homo sapiens, SW48, read-out: IC50 in cell proliferation assay, cell line SW48 (EGFR p.G719S)
  IC50: 59 nM
Homo sapiens, SW480, read-out: IC50 in cell proliferation assay, cell line SW480
  IC50: 342 nM
Homo sapiens, SW626, read-out: IC50 in cell proliferation assay, cell line SW626
  IC50: 146 nM
Homo sapiens, SW780, read-out: IC50 in cell proliferation assay, cell line SW780 (FGFR3-BAIAP2L1)
  IC50: 127 nM
Homo sapiens, SW837, read-out: IC50 in cell proliferation assay, cell line SW837
  IC50: 137 nM
Homo sapiens, SW872, read-out: IC50 in cell proliferation assay, cell line SW872 (BRAF p.V600E)
  IC50: 46 nM
Homo sapiens, SW900, read-out: IC50 in cell proliferation assay, cell line SW900
  IC50: 295 nM
Homo sapiens, SW948, read-out: IC50 in cell proliferation assay, cell line SW948
  IC50: 87 nM
Homo sapiens, SW982, read-out: IC50 in cell proliferation assay, cell line SW982 (BRAF p.V600E)
  IC50: 1700 nM
Homo sapiens, SW-620, read-out: IC50 in cell proliferation assay, cell line SW620
  IC50: 93 nM
Homo sapiens, T98G, read-out: IC50 in cell proliferation assay, cell line T98G
  IC50: 3340 nM
Homo sapiens, TCC-SUP, read-out: IC50 in cell proliferation assay, cell line TCCSUP
  IC50: 483 nM
Homo sapiens, THP-1, read-out: IC50 in cell proliferation assay, cell line THP-1
  IC50: 20 nM
Homo sapiens, U2OS, read-out: IC50 in cell proliferation assay, cell line U2OS
  IC50: 279 nM
Homo sapiens, U-87 MG, read-out: IC50 in cell proliferation assay, cell line U-87MG ATCC
  IC50: 925 nM
Homo sapiens, U-118-MG, read-out: IC50 in cell proliferation assay, cell line U-118MG
  IC50: 147 nM
Homo sapiens, UMUC3, read-out: IC50 in cell proliferation assay, cell line UM-UC-3
  IC50: 43 nM
Hs766T, read-out: IC50 in cell proliferation assay, Hs 766T cell line
  IC50: 6 nM
L-82, read-out: IC50 in cell proliferation assay, L-82 cell line (NPM1-ALK)
  IC50: 250 nM
Rh30, read-out: IC50 in cell proliferation assay, cell line Rh30
  IC50: 3410 nM
read-out: IC50 in cell proliferation assay, 11-18 cell line (EGFR p.L858R)
  IC50: > 10000 nM
read-out: IC50 in cell proliferation assay, Hs 852.T cell line
  IC50: 592 nM
read-out: IC50 in cell proliferation assay, JAR cell line
  IC50: 6290 nM
read-out: IC50 in cell proliferation assay, cell line 5637
  IC50: 452 nM
read-out: IC50 in cell proliferation assay, cell line A-388
  IC50: 171 nM
read-out: IC50 in cell proliferation assay, cell line DB
  IC50: 8690 nM
read-out: IC50 in cell proliferation assay, cell line DEL (NPM1-ALK)
  IC50: 4200 nM
read-out: IC50 in cell proliferation assay, cell line ES-2 (BRAF p.V600E)
  IC50: 32 nM
read-out: IC50 in cell proliferation assay, cell line PA-1
  IC50: 496 nM
read-out: IC50 in cell proliferation assay, cell line PC-3
  IC50: > 10000 nM
read-out: IC50 in cell proliferation assay, cell line RD
  IC50: 92 nM
read-out: IC50 in cell proliferation assay, cell line RKO (BRAF p.V600E)
  IC50: 38 nM
read-out: IC50 in cell proliferation assay, cell line RL
  IC50: > 10000 nM
read-out: IC50 in cell proliferation assay, cell line RT-4 (FGFR3-TACC3)
  IC50: 299 nM
read-out: IC50 in cell proliferation assay, cell line SR (NPM1-ALK)
  IC50: 509 nM
read-out: IC50 in cell proliferation assay, cell line T24
  IC50: 43 nM
read-out: IC50 in cell proliferation assay, cell line TT (RET p.C634W)
  IC50: 225 nM
read-out: IC50 in cell proliferation assay, cell line VA-ES-BJ
  IC50: 4580 nM
